Patent US12686668B2, “Leukotriene synthesis inhibitors” (Naegis Pharmaceuticals Inc., priority 2019, dated 2026)

Experiments:
[1] = Solubilized concentration of compound in eye drop formulation (HPLC); type: physicochemical; settings: eye drop formulation: 20% hydroxypropyl β-cyclodextrin, 0.5% HPMC, 1.6 mM EDTA in PBS
Experimental: Eye drops were prepared by adding compounds at a theoretical concentration of 10 mg/mL to a 2 mL microcentrifuge tube before adding a stir bar and the selected formulation that consisted of (w/v) hydroxypropyl β-cyclodextrin (Trappsol) (20%), hydroxyl propyl methylcellulose (0.5%) and EDTA (1.6 mM) in phosphate buffered saline. Tubes containing compound in eye drop formulation were heated to 60-65° C. and stirred at least 4 hours to overnight. The tubes were removed from the heat bath and centrifuged at 10,000 ref for 5 minutes to clear the solution of any residual drug not in solution. The supernatant was removed from the tubes and one 10 μL sample was removed for HPLC analysis of solubilized by HPLC using an ACE C18 column (4.5 mm×150 mm, 5 m), eluted with acetonitrile/methanol/water mixture with H3PO4, pH 3.5 (50:30:20) with a flow rate of 2.5 mL/min. The solubilized concentration of each compound was calculated by interpolation from a standard curve based on reference standards solubilized in methanol when the assay was validated.
In Table 6, the data from distribution studies performed in Lewis rats show the concentration of each compound present in the retina 0.5 hr after the administration of a 10 μL drop of each topical formation is provided. Compounds were paired and individual formulations mixed at a ratio to make a mixture that contained ~2.5 mg/mL of each compound.

[2] = system: LPS-induced neutrophil infiltration into the lung; test: Lipopolysaccharide (LPS) mouse lung inflammation model; type: in vivo, CD-1 mice; settings: 10 mg/kg oral, 1 hr before and 2 hrs after LPS 2.5 mg/kg intratracheal, BAL 6 hr post-LPS
Experimental: In this model, LPS was instilled into the lungs of mice to induce a neutrophilia in the lung tissue. The neutrophilia can be measured in the BAL fluid during lung lavage at various times after challenge with LPS. The neutrophilia develops with a significant increase in cells in the BAL after 6 hrs and achieves a maximum response by 24 hrs. CD-1 mice received lipopolysaccharide (LPS) 2.5 mg/kg in phosphate buffered saline (PBS) or PBS in a volume of 50 μL by intracheal instillation into the lung. The animals were lightly anesthetized using isofluorane to enable application of the LPS. When anesthetized the animals were placed on a board at an angle of 45°. The tongue was rolled to one side and LPS was administered directly into the trachea in a volume of 50 μL. The animal remained in position for 1-2 minutes to ensure the LPS remained in the lung. At the end of the LPS challenge time, animals were euthanized by an overdose of isofluorane. The trachea was exposed and the lungs were intubated using a 21 G catheter tube. The lungs were lavaged with 2×1 mL of PBS at room temperature. […] The differential cell counts were determined using an automated cell counter (Abraxia) set to measure mouse cells. Cell concentration of the resuspended sample was expressed as total cells recovered in the total volume of recovered BAL. […]

[3] = target: T1, recombinant human leukotriene A4 hydrolase enzyme (Homo sapiens, UniProt P09960); test: Amino-peptidase assay, alanine-4-nitroanalide; type: biochemical; settings: negative values = augmented peptidase activity, read-out: % Inhibition aminopeptidase-Alanine-4-nitroanalide activity of LTA4H (3 μM)
T1 construct: purchased Cayman Chemical 10007817
T1 sequence (P09960 1-611): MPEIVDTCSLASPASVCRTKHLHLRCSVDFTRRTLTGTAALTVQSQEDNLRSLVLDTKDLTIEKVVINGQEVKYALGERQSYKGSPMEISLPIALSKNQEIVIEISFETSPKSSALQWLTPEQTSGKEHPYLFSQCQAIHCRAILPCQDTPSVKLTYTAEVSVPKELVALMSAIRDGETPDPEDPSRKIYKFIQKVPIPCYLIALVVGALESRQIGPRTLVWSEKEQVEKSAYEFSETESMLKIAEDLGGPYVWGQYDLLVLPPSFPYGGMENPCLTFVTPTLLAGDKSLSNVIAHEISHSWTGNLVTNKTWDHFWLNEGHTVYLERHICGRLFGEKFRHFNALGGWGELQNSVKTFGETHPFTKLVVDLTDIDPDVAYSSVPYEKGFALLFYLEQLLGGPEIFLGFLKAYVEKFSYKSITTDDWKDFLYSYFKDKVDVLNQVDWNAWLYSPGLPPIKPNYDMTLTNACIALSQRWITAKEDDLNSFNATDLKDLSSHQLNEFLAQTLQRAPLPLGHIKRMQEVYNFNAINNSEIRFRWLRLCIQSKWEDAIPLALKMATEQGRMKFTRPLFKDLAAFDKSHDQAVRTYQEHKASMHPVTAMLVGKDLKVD
Method in brief: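 Compounds pre-incubated in the dark with recombinant human LTA4H (0.5 μg) in 50 mM Tris-HCl, 100 mM KCl; reaction started with alanine-4-nitroanilide (6 mM solution). Aminopeptidase rate followed as A405 from 4-nitroaniline, referenced to a standard; inhibition calculated versus controls, with negative values indicating augmented activity.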

[4] = target: T1, recombinant human leukotriene A4 hydrolase enzyme; test: Amino-peptidase assay, PGP; type: biochemical; settings: concentration not given
Experimental: A series of compound concentrations were pre-incubated with 50 ng of recombinant human leukotriene A4 hydrolase enzyme (Cayman Chemical, 10007817) in 50 L assay buffer (50 mM Tris-HCl, 100 mM KCl). The reaction was stimulated by adding 50 L 1 mM proline-glycine-proline (Bachem, H-7284) and incubated for 30 minutes at 37° C. The reaction was stopped with the addition of 150 μL of glacial acetic acid. The amount of free proline released from the peptide was detected through a reaction with ninhydrin. 150 μL of 25 mg/mL ninhydrin (BDH, B10132) in 60:40 acetic acid/water was added to each sample, and boiled for 30 minutes at 100° C. and once samples had cooled to room temperature, 350 μL of toluene was added to extract the ninhydrin reaction product. The amount of free proline was determined by comparing the absorbance at 520 nm to the L-proline (Sigma Aldrich, 81709) reference standard. Inhibition of free proline production was calculated based on control samples.

Row | Structure (SMILES) | Concentration of compound in formulation [1] [µg/mL] | Effect on LPS-induced neutrophil infiltration into the lung (BAL) [2] | inhibition at 3 µM [3] [%] | % Inhibition aminopeptidase-PGP activity of LTA4H [4] [%]
1 | CCC(O)(CCc1ccc(Oc2nc3c(SC)cccc3s2)c(OC)c1)C(F)(F)F (centres unmarked) [Compound 104, 1-{3-methoxy-4-[(4-methylsulfanyl-1,3-benzothiazol-2-yl)oxy]phenyl}-3-(trifluoromethyl)pentan-3-ol] | 2860 | inhibitory effect | -50 to 100 | 
2 | CC(O)(CCc1ccc(OCc2ccc3ccccc3n2)cc1)C(F)(F)F (centres unmarked) [Compound 183, 1,1,1-trifluoro-2-methyl-4-[4-(quinolin-2-ylmethoxy)phenyl]butan-2-ol] |  |  | > 75 | >75
